Where two headings read alike, the source gives them in different places.
Biological target: PD-1/PD-L1 complex (Homo sapiens, UniProt Q9NZQ7)
Experiment: HTRF assay of PD-1/PD-L1 complex dissociation (CisBio);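 also: human PD-L1 at 5 nM with human PD-1 at 50 nM, TR-FRET signal read after 2 h at room temperature, background removed via negative control and scaled to positive control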
Settings: for remaining activity at 5 µM / remaining activity at 50 µM / remaining activity at 0.005 µM: 2 h; for IC50: HTRF; for % of undissociated complex: at 50 μM, Table S1; for HTRF % of the undissociated complex: determined at 50 μM inhibitor (footnote a), Table 2; for % of the undissociated complex: 5 μM
[1] = read-out: % of the undissociated complex in HTRF
[2] = read-out: % of undissociated complex at 5 μM
[3] = read-out: HTRF % of the undissociated complex at 5 μM
[4] = read-out: % of undissociated complex at 5 nM
[5] = read-out: HTRF % of the undissociated complex at 5 nM
[6] = Table 4, <1.00 = limit of quantification reached

PD-1/PD-L1 complex, sequence (Q9NZQ7 19-238 limits assumed, one chain of several): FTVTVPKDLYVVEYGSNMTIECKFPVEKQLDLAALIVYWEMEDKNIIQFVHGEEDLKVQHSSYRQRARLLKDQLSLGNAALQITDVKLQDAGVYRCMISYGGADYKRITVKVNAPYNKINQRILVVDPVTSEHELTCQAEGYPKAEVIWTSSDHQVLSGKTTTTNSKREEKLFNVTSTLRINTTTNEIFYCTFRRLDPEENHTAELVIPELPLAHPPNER

| Compound | remaining activity at 5 µM [1] | remaining activity at 5 µM [2] | remaining activity at 5 µM [3] | remaining activity at 0.005 µM [4] | remaining activity at 0.005 µM [5] | other results |
| --- | --- | --- | --- | --- | --- | --- |
| Cc1c(-c2cccc(CO)c2)cccc1-c1ccc2c(c1)OCCO2 [4b, (3′-(Benzo-1,4-dioxan-6-yl)-2′-methyl-[1,1′-biphenyl]-3-yl)methanol] | 88% | 88% | 88% |  |  |  |
| Cc1c(-c2ccc3c(c2)OCCO3)cccc1-c1ccccc1CO [4c, (3′-(Benzo-1,4-dioxan-6-yl)-2′-methyl-[1,1′-biphenyl]-2-yl)methanol] | 98% | 98% | 98% |  |  |  |
| Nc1c(-c2ccc(CO)cc2)cccc1-c1ccc2c(c1)OCCO2 [4d, (2′-Amino-3′-(benzo-1,4-dioxan-6-yl)-[1,1′-biphenyl]-4-yl)methanol] | 73% | 73% | 73% |  |  |  |
| OCc1ccc(-c2cccc(-c3ccc4c(c3)OCCO4)c2Cl)cc1 [4e, (3′-(Benzo-1,4-dioxan-6-yl)-2′-chloro-[1,1′-biphenyl]-4-yl)methanol] | 1% | 1% | 1% |  |  | IC50: ~500 nM; IC50 (Table 1): 510 ± 10 nM |
| OCc1ccc(-c2cccc(-c3ccc4c(c3)OCCO4)c2Br)cc1 [4f, (3′-(Benzo-1,4-dioxan-6-yl)-2′-bromo-[1,1′-biphenyl]-4-yl)methanol] | 15% | 15% | 15% |  |  | IC50 (Table 1): 950 ± 20 nM |
| OCc1ccc(-c2cccc(-c3ccc4c(c3)OCCO4)c2I)cc1 [4g, (3′-(Benzo-1,4-dioxan-6-yl)-2′-iodo-[1,1′-biphenyl]-4-yl)methanol] | 56% | 56% | 56% |  |  |  |
| N#Cc1c(-c2ccc(CO)cc2)cccc1-c1ccc2c(c1)OCCO2 [4h] | 21% | 21% | 21% |  |  | IC50 (Table 1): 1170 ± 120 nM |
| Cc1c(-c2ccc(COc3cccc(C(=O)O)c3)cc2)cccc1-c1ccc2c(c1)OCCO2 [5b, 3-((3′-(Benzo-1,4-dioxan-6-yl)-2′-methyl-[1,1′-biphenyl]-4-yl)methoxy)benzoic Acid] |  |  |  |  |  | remaining activity at 50 µM [1]: 71%; % of undissociated complex: 71%; HTRF % of the undissociated complex: 71^[a] % |
| Cc1c(-c2ccc(COc3ccc(-c4cccnc4)c(C=O)c3)cc2)cccc1-c1ccc2c(c1)OCCO2 [5d, 5-((3′-(Benzo-1,4-dioxan-6-yl)-2′-methyl-[1,1′-biphenyl]-4-yl)methoxy)-2-(pyridin-3-yl)benzaldehyde] |  |  |  |  |  | remaining activity at 50 µM [1]: 65%; % of undissociated complex: 65%; HTRF % of the undissociated complex: 65^[a] % |
| Cc1c(-c2ccc(COc3cc(C(=O)O)on3)cc2)cccc1-c1ccc2c(c1)OCCO2 [5f, 3-((3′-(Benzo-1,4-dioxan-6-yl)-2′-methyl-[1,1′-biphenyl]-4-yl)methoxy)isoxazole-5-carboxylic Acid] | 90% | 90% | 90% |  |  |  |
| Cc1c(-c2ccc(Cn3cc(C(=O)O)nn3)cc2)cccc1-c1ccc2c(c1)OCCO2 [5h, 1-((3′-(Benzo-1,4-dioxan-6-yl)-2′-methyl-[1,1′-biphenyl]-4-yl)methyl)-1H-1,2,3-triazole-4-carboxylic Acid] | 100% | 100% | 100% |  |  |  |
| Cc1c(-c2cccc(COc3cccc(C(=O)O)c3)c2)cccc1-c1ccc2c(c1)OCCO2 [5j, 3-((3′-(Benzo-1,4-dioxan-6-yl)-2′-methyl-[1,1′-biphenyl]-3-yl)methoxy)benzoic Acid] | 90% | 90% | 90% |  |  |  |
| Cc1c(-c2cccc(COc3ccc(-c4cccnc4)c(C=O)c3)c2)cccc1-c1ccc2c(c1)OCCO2 [5l, 5-((3′-(Benzo-1,4-dioxan-6-yl)-2′-methyl-[1,1′-biphenyl]-3-yl)methoxy)-2-(yridine-3-yl)benzaldehyde] |  |  |  |  |  | remaining activity at 50 µM [1]: 95%; % of undissociated complex: 95%; HTRF % of the undissociated complex: 95^[a] % |
| Cc1c(-c2cccc(COc3cc(C(=O)O)on3)c2)cccc1-c1ccc2c(c1)OCCO2 [5n, 3-((3′-(Benzo-1,4-dioxan-6-yl)-2′-methyl-[1,1′-biphenyl]-3-yl)methoxy)isoxazole-5-carboxylic Acid] | 77% | 77% | 77% |  |  |  |
| Cc1c(-c2ccc3c(c2)OCCO3)cccc1-c1ccccc1COc1cccc(C(=O)O)c1 [5p, 3-((3′-(Benzo-1,4-dioxan-6-yl)-2′-methyl-[1,1′-biphenyl]-2-yl)methoxy)benzoic Acid] |  |  |  |  |  | remaining activity at 50 µM [1]: 87%; % of undissociated complex: 87%; HTRF % of the undissociated complex: 87^[a] % |
| Cc1c(-c2ccc3c(c2)OCCO3)cccc1-c1ccccc1COc1cc(C(=O)O)on1 [5r, 3-((3′-(Benzo-1,4-dioxan-6-yl)-2′-methyl-[1,1′-biphenyl]-2-yl)methoxy)isoxazole-5-carboxylic Acid] | 100% | 100% | 100% |  |  |  |

Continued, in another order:

| remaining activity at 5 µM [1] | remaining activity at 5 µM [2] | remaining activity at 5 µM [3] | remaining activity at 0.005 µM [4] | remaining activity at 0.005 µM [5] | Compound | other results |
| --- | --- | --- | --- | --- | --- | --- |
| 55% | 55% | 55% |  |  | Cc1c(-c2ccc(CN3CCOCC3)cc2)cccc1-c1ccc2c(c1)OCCO2 [6a, 4-((3′-(Benzo-1,4-dioxan-6-yl)-2′-methyl-[1,1′-biphenyl]-4-yl)methyl)morpholine] |  |
| 5% | 5% | 5% |  |  | Cc1c(-c2ccc(CN3CCNCC3)cc2)cccc1-c1ccc2c(c1)OCCO2 [6b, 4-((3′-(Benzo-1,4-dioxan-6-yl)-2′-methyl-[1,1′-biphenyl]-4-yl)methyl)piperazine] | % of the undissociated complex: 5% |
| 56% | 56% | 56% |  |  | Cc1c(-c2cccc(CN3CCNCC3)c2)cccc1-c1ccc2c(c1)OCCO2 [6c, 1-((3′-(Benzo-1,4-dioxan-6-yl)-2′-methyl-[1,1′-biphenyl]-3-yl)methyl)piperazine] | % of the undissociated complex: about 56% |
|  |  |  | 63% | 63% | COc1cc(-c2cccc(-c3ccc4c(c3)OCCO4)c2C)ccc1CN1CCNCC1 [6d, 1-((3′-(Benzo-1,4-dioxan-6-yl)-3-methoxy-2′-methyl-[1,1′-biphenyl]-4-yl)methyl)piperazine] |  |
|  |  |  | 88% | 88% | Cc1c(-c2ccc(CN3CCNCC3)c(OCc3cccc(C#N)c3)c2)cccc1-c1ccc2c(c1)OCCO2 [6e, 3-(((3′-(Benzo-1,4-dioxan-6-yl)-2′-methyl-4-(piperazin-1-ylmethyl)-[1,1′-biphenyl]-3-yl)oxy)methyl)benzonitrile] |  |
|  |  |  | 5% | 5% | CCOc1cc(-c2cccc(-c3ccc4c(c3)OCCO4)c2Cl)ccc1CNCCNC(C)=O [7b, N-(2-(((3′-(Benzo-1,4-dioxan-6-yl)-2′-chloro-3-ethoxy-[1,1′-biphenyl]-4-yl)methyl)amino)ethyl)acetamide] |  |
|  |  |  | 5% | 5% | CC(=O)NCCNCc1ccc(-c2cccc(-c3ccc4c(c3)OCCO4)c2Cl)cc1OC(C)C [7c, N-(2-(((3′-(Benzo-1,4-dioxan-6-yl)-2′-chloro-3-isopropoxy-[1,1′-biphenyl]-4-yl)methyl)amino)ethyl)acetamide] |  |
|  |  |  | 65% | 65% | CC(=O)NCCNCc1ccc(-c2cccc(-c3ccc4c(c3)OCCO4)c2Cl)cc1OCCC(C)C [7d, N-(2-(((3′-(Benzo-1,4-dioxan-6-yl)-2′-chloro-3-isopentyloxy-[1,1′-biphenyl]-4-yl)methyl)amino)ethyl)acetamide] |  |
|  |  |  | 53% | 53% | CC(=O)NCCNCc1ccc(-c2cccc(-c3ccc4c(c3)OCCO4)c2Cl)cc1OCC1CCC1 [7f, N-(2-(((3′-(Benzo-1,4-dioxan-6-yl)-2′-chloro-3-(cyclobutylmethoxy)-[1,1′-biphenyl]-4-yl)methyl)amino)ethyl)acetamide] |  |
|  |  |  | 76% | 76% | CC(=O)NCCNCc1ccc(-c2cccc(-c3ccc4c(c3)OCCO4)c2Cl)cc1OCC1CCCC1 [7g, N-(2-(((3′-(Benzo-1,4-dioxan-6-yl)-2′-chloro-3-(cyclopentylmethoxy)-[1,1′-biphenyl]-4-yl)methyl)amino)ethyl)acetamide] |  |
|  |  |  | 100% | 100% | CC(=O)NCCNCc1ccc(-c2cccc(-c3ccc4c(c3)OCCO4)c2Cl)cc1OCc1cccc(-c2cccc(C#N)c2)c1 [7h, N-(2-(((3′-(Benzo-1,4-dioxan-6-yl)-2′-chloro-3-((3′-cyano-[1,1′-biphenyl]-3-yl)methoxy)-[1,1′-biphenyl]-4-yl)methyl)amino)ethyl)acetamide] |  |
|  |  |  | 38% | 38% | COc1cc(-c2cccc(-c3ccc4c(c3)OCCO4)c2Cl)ccc1CN1CCNCC1 [8a, 1-((3′-(Benzo-1,4-dioxan-6-yl)-2′-chloro-3-methoxy-[1,1′-biphenyl]-4-yl)methyl)piperazine] | IC50 [6]: 18.09 ± 0.09 nM |
|  |  |  | 28% | 28% | COc1cc(-c2cccc(-c3ccc4c(c3)OCCO4)c2Cl)ccc1CN1CCN(C(N)=O)CC1 [8b, 4-((3′-(Benzo-1,4-dioxan-6-yl)-2′-chloro-3-methoxy-[1,1′-biphenyl]-4-yl)methyl)piperazine-1-carboxamide] | IC50 [6]: < 1 nM |
|  |  |  | 40% | 40% | COc1cc(-c2cccc(-c3ccc4c(c3)OCCO4)c2Cl)ccc1CN1CCN(C(C)=O)CC1 [8c, 1-(4-((3′-(Benzo-1,4-dioxan-6-yl)-2′-chloro-3-methoxy-[1,1′-biphenyl]-4-yl)methyl)piperazin-1-yl)ethan-1-one] | IC50 [6]: < 1 nM |

From PMC8365601, “Terphenyl-Based Small-Molecule Inhibitors of Programmed Cell Death-1/Programmed Death-Ligand 1 Protein–Protein Interaction” (Journal of Medicinal Chemistry, 2021)
